Values after ≈ are worked out from the molar mass of the structure shown.
Columns and labels:
Assay type in all cases: cell-based
[1] = tested on: Clostridium perfringens A9635; assay: microbe, parasite or virus in culture
Micrococcus flavus D-12 = assay: MIC, serial two-fold dilution method (aerobic)
[2] = tested on: Bacteroides ovatus A22400; assay: MIC, serial two-fold dilution method (anaerobic)
[3] = tested on: Staphylococcus aureus A20701; assay: MIC, serial two-fold dilution method (aerobic)
[4] = tested on: Staphylococcus aureus #193; assay: MIC, serial two-fold dilution method (aerobic)
Sarcina lutea PCI-1001 = assay: MIC, serial two-fold dilution method (aerobic)
[5] = tested on: Clostridium cylindrosporum A9562; assay: MIC, serial two-fold dilution method (anaerobic)
[6] = tested on: Streptococcus pyogenes S-23; assay: MIC, serial two-fold dilution method (aerobic)
Proteus vulgaris A9436 = assay: MIC, serial two-fold dilution method (aerobic)
[7] = tested on: Staphylococcus aureus A20394; assay: MIC, serial two-fold dilution method (aerobic)
[8] = tested on: Klebsiella pneumoniae D-11; assay: MIC, serial two-fold dilution method (aerobic)
Proteus mirabilis A9554 = assay: MIC, serial two-fold dilution method (aerobic)
[9] = tested on: Staphylococcus aureus A9748; assay: MIC, serial two-fold dilution method (aerobic)
[10] = tested on: Bacteroides fragilis A22533; assay: MIC, serial two-fold dilution method (anaerobic)
[11] = tested on: Bacillus subtilis ATCC 6633; assay: MIC, serial two-fold dilution method (aerobic)
[12] = tested on: Bacteroides fragilis A20929; assay: MIC, serial two-fold dilution method (anaerobic)
[13] = tested on: Haemophilus influenzae A22481; assay: MIC, serial two-fold dilution method (aerobic)
[14] = tested on: Pseudomonas aeruginosa D-113; assay: MIC, serial two-fold dilution method (aerobic)
[15] = tested on: Clostridium acidiurici A9560; assay: MIC, serial two-fold dilution method (anaerobic)
[16] = tested on: Staphylococcus aureus A20239; assay: MIC, serial two-fold dilution method (aerobic)
[17] = tested on: Bacteroides fragilis A22695; assay: MIC, serial two-fold dilution method (anaerobic)
[18] = tested on: Bacteroides fragilis A20928-1; assay: MIC, serial two-fold dilution method (anaerobic)
[19] = tested on: Staphylococcus aureus A9601; assay: MIC, serial two-fold dilution method (aerobic)
[20] = tested on: Peptococcus magnas A21676; assay: MIC, serial two-fold dilution method (anaerobic)
[21] = tested on: Clostridium perfringens A22787; assay: microbe, parasite or virus in culture
[22] = tested on: Propionibacterium acnes A21933; assay: MIC, serial two-fold dilution method (anaerobic)
[23] = tested on: Staphylococcus aureus BX-1633; assay: MIC, serial two-fold dilution method (aerobic)

## CN[C@H](CC(C)C)C(=O)N[C@H]1C(=O)N[C@@H](CC(N)=O)C(=O)N[C@H]2C(=O)N[C@H]3C(=O)N[C@H](C(=O)N[C@H](C(=O)O)c4cc(O)cc(O)c4-c4cc3ccc4O)[C@H](O)c3ccc(c(Cl)c3)Oc3cc2cc(c3O[C@@H]2O[C@H](CO)[C@@H](O)[C@H](O)[C@H]2O[C@H]2C[C@](C)(N)[C@H](O)[C@H](C)O2)Oc2ccc(cc2Cl)[C@H]1O [Vancomycin]
[1]; Clostridium perfringens, A9635, read-out: minimum inhibitory concentration (MIC)
  MIC: 1.6 µg/mL (≈ 1.1 µM)
Micrococcus flavus D-12; Micrococcus flavus, D12, read-out: minimum inhibitory concentration (MIC)
  MIC: 0.2 µg/mL (≈ 0.138 µM)
[2]; Bacteroides ovatus, A22400, read-out: minimum inhibitory concentration (MIC)
  MIC: 50 µg/mL (≈ 34.5 µM)
[3]; Staphylococcus aureus, A20701, read-out: minimum inhibitory concentration (MIC)
  MIC: 0.8 µg/mL (≈ 0.552 µM)
[4]; Staphylococcus aureus, read-out: minimum inhibitory concentration (MIC)
  MIC: 0.8 µg/mL (≈ 0.552 µM)
Sarcina lutea PCI-1001; Micrococcus luteus, PCI1001, read-out: minimum inhibitory concentration (MIC)
  MIC: 0.4 µg/mL (≈ 0.276 µM)
[5]; Clostridium cylindrosporum, A9562, read-out: minimum inhibitory concentration (MIC)
  MIC: 0.8 µg/mL (≈ 0.552 µM)
[6]; Streptococcus pyogenes, S23, read-out: minimum inhibitory concentration (MIC)
  MIC: 0.8 µg/mL (≈ 0.552 µM)
Proteus vulgaris A9436; Proteus vulgaris, A9436, read-out: minimum inhibitory concentration (MIC)
  MIC: > 100 µg/mL
[7]; Staphylococcus aureus, A20394, read-out: minimum inhibitory concentration (MIC)
  MIC: 0.4 µg/mL (≈ 0.276 µM)
[8]; Klebsiella pneumoniae, D11, read-out: minimum inhibitory concentration (MIC)
  MIC: > 100 µg/mL
Proteus mirabilis A9554; Proteus mirabilis, A9554, read-out: minimum inhibitory concentration (MIC)
  MIC: > 100 µg/mL
[9]; Staphylococcus aureus, A9748, read-out: minimum inhibitory concentration (MIC)
  MIC: 0.8 µg/mL (≈ 0.552 µM)
[10]; Bacteroides fragilis, A22533, read-out: minimum inhibitory concentration (MIC)
  MIC: 50 µg/mL (≈ 34.5 µM)
[11]; Bacillus subtilis, ATCC6633, read-out: minimum inhibitory concentration (MIC)
  MIC: 0.1 µg/mL (≈ 0.069 µM)
[12]; Bacteroides fragilis, A20929, read-out: minimum inhibitory concentration (MIC)
  MIC: 0.8 µg/mL (≈ 0.552 µM)
[13]; Haemophilus influenzae, A22481, read-out: minimum inhibitory concentration (MIC)
  MIC: > 100 µg/mL
[14]; Pseudomonas aeruginosa, D113, read-out: minimum inhibitory concentration (MIC)
  MIC: > 100 µg/mL
[15]; Gottschalkia acidurici, A9560, read-out: minimum inhibitory concentration (MIC)
  MIC: 0.8 µg/mL (≈ 0.552 µM)
[16]; Staphylococcus aureus, A20239, read-out: minimum inhibitory concentration (MIC)
  MIC: 1.6 µg/mL (≈ 1.1 µM)
[17]; Bacteroides fragilis, A22695, read-out: minimum inhibitory concentration (MIC)
  MIC: 25 µg/mL (≈ 17.3 µM)
[18]; Bacteroides fragilis, A209281, read-out: minimum inhibitory concentration (MIC)
  MIC: 3.1 µg/mL (≈ 2.14 µM)
[19]; Staphylococcus aureus, A9601, read-out: minimum inhibitory concentration (MIC)
  MIC: 0.8 µg/mL (≈ 0.552 µM)
[20]; read-out: minimum inhibitory concentration (MIC)
  MIC: < 0.05 µg/mL
[21]; Clostridium perfringens, A22787, read-out: minimum inhibitory concentration (MIC)
  MIC: 0.8 µg/mL (≈ 0.552 µM)
[22]; Cutibacterium acnes, A21933, read-out: minimum inhibitory concentration (MIC)
  MIC: 0.8 µg/mL (≈ 0.552 µM)
[23]; Staphylococcus aureus, BX1633, read-out: minimum inhibitory concentration (MIC)
  MIC: 0.8 µg/mL (≈ 0.552 µM)

## Amphomycin
[1]; Clostridium perfringens A9635, GAM agar medium, inoculum 10^7-10^8
  minimum inhibitory concentration (MIC): 6.3 µg/mL
Micrococcus flavus D-12; Micrococcus flavus D-12, Mueller-Hinton agar, inoculum 10^4
  minimum inhibitory concentration (MIC): 0.4 µg/mL
[2]; Bacteroides ovatus A22400, GAM agar medium, inoculum 10^7-10^8
  minimum inhibitory concentration (MIC): > 100 µg/mL
[3]; Staphylococcus aureus A20701, Mueller-Hinton agar, inoculum 10^4
  minimum inhibitory concentration (MIC): 6.3 µg/mL
[4]; Staphylococcus aureus #193, Mueller-Hinton agar, inoculum 10^4
  minimum inhibitory concentration (MIC): 3.1 µg/mL
Sarcina lutea PCI-1001; Sarcina lutea PCI-1001, Mueller-Hinton agar, inoculum 10^4
  minimum inhibitory concentration (MIC): 0.8 µg/mL
[5]; Clostridium cylindrosporum A9562, GAM agar medium, inoculum 10^7-10^8
  minimum inhibitory concentration (MIC): 25 µg/mL
[6]; Streptococcus pyogenes S-23, GC medium, inoculum 10^6 CFU/ml
  minimum inhibitory concentration (MIC): 12.5 µg/mL
Proteus vulgaris A9436; Proteus vulgaris A9436, Mueller-Hinton agar, inoculum 10^4
  minimum inhibitory concentration (MIC): > 100 µg/mL
[7]; Staphylococcus aureus A20394, Mueller-Hinton agar, inoculum 10^4
  minimum inhibitory concentration (MIC): 3.1 µg/mL
[8]; Klebsiella pneumoniae D-11, Mueller-Hinton agar, inoculum 10^4
  minimum inhibitory concentration (MIC): > 100 µg/mL
Proteus mirabilis A9554; Proteus mirabilis A9554, Mueller-Hinton agar, inoculum 10^4
  minimum inhibitory concentration (MIC): > 100 µg/mL
[9]; Staphylococcus aureus A9748, Mueller-Hinton agar, inoculum 10^4
  minimum inhibitory concentration (MIC): 6.3 µg/mL
[10]; Bacteroides fragilis A22533, GAM agar medium, inoculum 10^7-10^8
  minimum inhibitory concentration (MIC): > 100 µg/mL
[11]; Bacillus subtilis ATCC 6633, Mueller-Hinton agar, inoculum 10^4
  minimum inhibitory concentration (MIC): 1.6 µg/mL
[12]; Bacteroides fragilis A20929, GAM agar medium, inoculum 10^7-10^8
  minimum inhibitory concentration (MIC): 50 µg/mL
[13]; Haemophilus influenzae A22481, GC medium, inoculum 10^6 CFU/ml
  minimum inhibitory concentration (MIC): > 100 µg/mL
[14]; Pseudomonas aeruginosa D-113, Mueller-Hinton agar, inoculum 10^4
  minimum inhibitory concentration (MIC): > 100 µg/mL
[15]; Clostridium acidiurici A9560, GAM agar medium, inoculum 10^7-10^8
  minimum inhibitory concentration (MIC): 3.1 µg/mL
[16]; Staphylococcus aureus A20239, Mueller-Hinton agar, inoculum 10^4
  minimum inhibitory concentration (MIC): 6.3 µg/mL
[17]; Bacteroides fragilis A22695, GAM agar medium, inoculum 10^7-10^8
  minimum inhibitory concentration (MIC): > 100 µg/mL
[18]; Bacteroides fragilis A20928-1, GAM agar medium, inoculum 10^7-10^8
  minimum inhibitory concentration (MIC): 25 µg/mL
[19]; Staphylococcus aureus A9601, Mueller-Hinton agar, inoculum 10^4
  minimum inhibitory concentration (MIC): 3.1 µg/mL
[20]; Peptococcus magnas A21676, GAM agar medium, inoculum 10^7-10^8
  minimum inhibitory concentration (MIC): 6.3 µg/mL
[21]; Clostridium perfringens A22787, GAM agar medium, inoculum 10^7-10^8
  minimum inhibitory concentration (MIC): 12.5 µg/mL
[22]; Propionibacterium acnes A21933, GAM agar medium, inoculum 10^7-10^8
  minimum inhibitory concentration (MIC): 3.1 µg/mL
[23]; Staphylococcus aureus BX-1633, Mueller-Hinton agar, inoculum 10^4
  minimum inhibitory concentration (MIC): 3.1 µg/mL

— US4409210A, “Antibiotic compound” (priority 1982, dated 1983)
